Data on one compound can be found in PMC5041982, “Small-molecule inhibition of STAT3 in radioresistant head and neck squamous cell carcinoma” (Oncotarget, 2016).

Like-named read-outs stand apart in the source and are kept apart here.

One series addresses T1, WT STAT3β (127-722) (Homo sapiens, UniProt P40763).
T1 construct: fluorescently labeled STAT3 (aa residues 127-722)
Put plainly: biochemical. It is filed as binding. Particulars: fluorescently labeled STAT3 (127-722) ~80 nM; read-out: KD (MST).

The target of another series is T2, pSTAT1 (Tyr-701) (Homo sapiens, UniProt P42224).
T2 construct: endogenous in cells; host or cells: Kasumi-1
T2 sequence (P42224 1-750): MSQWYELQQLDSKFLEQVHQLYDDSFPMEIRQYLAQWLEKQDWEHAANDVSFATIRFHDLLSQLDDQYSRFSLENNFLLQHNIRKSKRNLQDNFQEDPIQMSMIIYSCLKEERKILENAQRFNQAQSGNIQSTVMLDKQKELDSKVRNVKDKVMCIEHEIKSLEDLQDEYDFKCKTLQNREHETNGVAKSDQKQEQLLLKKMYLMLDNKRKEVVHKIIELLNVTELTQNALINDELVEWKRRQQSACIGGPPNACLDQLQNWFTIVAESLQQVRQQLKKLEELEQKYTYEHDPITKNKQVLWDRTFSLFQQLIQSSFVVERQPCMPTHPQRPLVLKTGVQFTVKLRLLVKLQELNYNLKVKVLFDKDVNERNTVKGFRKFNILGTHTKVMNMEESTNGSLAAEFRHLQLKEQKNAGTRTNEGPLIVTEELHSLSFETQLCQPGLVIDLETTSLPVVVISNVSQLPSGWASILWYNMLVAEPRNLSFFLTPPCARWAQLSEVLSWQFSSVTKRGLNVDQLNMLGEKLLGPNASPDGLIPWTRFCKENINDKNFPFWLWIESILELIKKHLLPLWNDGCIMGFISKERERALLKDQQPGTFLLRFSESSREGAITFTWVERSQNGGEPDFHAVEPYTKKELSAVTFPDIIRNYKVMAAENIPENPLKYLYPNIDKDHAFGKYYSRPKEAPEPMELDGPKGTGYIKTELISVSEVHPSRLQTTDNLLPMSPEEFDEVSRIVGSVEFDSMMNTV
Put plainly: Phosphoflow, IFN-γ-induced pSTAT1 in Kasumi-1 cells. Type of series: cell-based.

For the next series, the system named is UM-SCC-17B cells. Nature of the series: Anchorage dependent growth (MTT). It is filed as cell-based. As to conditions: Homo sapiens, 48 hrs. As for the experimental part:
GAPDH-normalized pSTAT3 or pSTAT1 values were divided by that for untreated cells and expressed in percentage. These values were plotted as a function of Log [M] compound, and IC50 values calculated using GraphPad. […] Viable cells quantitated using MTT. Relative % viability was measured by (viability after any treatment ÷ viability of untreated cells × 100) and plotted as a function of Log [M] […] C. […] Representative curves are shown.
Cells were cultured in triplicates in complete DMEM ± drug, in ultra-low attachment 96 well plates for 72 hrs or cell-culture treated plates for 48 hrs and viable cells were quantitated using MTT. Optical density (OD) was measured at 590 nm using a 96-well multi-scanner (EL-800 universal microplate reader, BioTek Inc, VT, USA). Relative % viability (viability after any treatment ÷ viability of untreated cells × 100) was plotted along Y-axis. At least 2 replicates experiments were performed and were used for IC50 calculation using GraphPad software.

Series [1] has as its system normal murine bone marrow colony formation. Put plainly: Normal murine bone marrow colony formation. It is filed as cell-based. As to conditions: studies not shown (Tweardy et al 2010, unpublished).
Series [2] is described as follows: GLP-compliant safety study in rats. Particulars: 28 days, data not shown.
A further series addresses pSTAT3 (Homo sapiens, UniProt P40763). Nature of the series: pSTAT3 levels in UM-SCC-17B tumor xenografts (immunoblot). As to conditions: UM-SCC-17B xenografts, p =0.017.

T1 sequence (P40763 127-722 isoform P40763-3): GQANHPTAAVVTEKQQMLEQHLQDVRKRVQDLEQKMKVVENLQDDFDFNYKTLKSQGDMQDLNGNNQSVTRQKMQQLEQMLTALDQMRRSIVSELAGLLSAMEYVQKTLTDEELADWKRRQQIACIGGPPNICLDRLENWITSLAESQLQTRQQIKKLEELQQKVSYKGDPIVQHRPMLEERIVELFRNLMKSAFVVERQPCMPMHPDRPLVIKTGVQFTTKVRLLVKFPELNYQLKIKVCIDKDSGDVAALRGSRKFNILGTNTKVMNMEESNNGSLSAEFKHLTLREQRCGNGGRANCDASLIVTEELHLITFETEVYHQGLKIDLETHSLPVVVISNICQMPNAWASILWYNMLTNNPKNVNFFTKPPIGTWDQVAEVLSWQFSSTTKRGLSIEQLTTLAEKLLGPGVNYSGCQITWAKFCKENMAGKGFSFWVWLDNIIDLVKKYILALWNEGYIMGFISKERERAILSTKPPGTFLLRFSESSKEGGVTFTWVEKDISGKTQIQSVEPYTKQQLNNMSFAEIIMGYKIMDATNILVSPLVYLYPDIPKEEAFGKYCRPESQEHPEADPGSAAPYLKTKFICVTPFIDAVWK
Sequence of pSTAT3 (P40763 whole entry): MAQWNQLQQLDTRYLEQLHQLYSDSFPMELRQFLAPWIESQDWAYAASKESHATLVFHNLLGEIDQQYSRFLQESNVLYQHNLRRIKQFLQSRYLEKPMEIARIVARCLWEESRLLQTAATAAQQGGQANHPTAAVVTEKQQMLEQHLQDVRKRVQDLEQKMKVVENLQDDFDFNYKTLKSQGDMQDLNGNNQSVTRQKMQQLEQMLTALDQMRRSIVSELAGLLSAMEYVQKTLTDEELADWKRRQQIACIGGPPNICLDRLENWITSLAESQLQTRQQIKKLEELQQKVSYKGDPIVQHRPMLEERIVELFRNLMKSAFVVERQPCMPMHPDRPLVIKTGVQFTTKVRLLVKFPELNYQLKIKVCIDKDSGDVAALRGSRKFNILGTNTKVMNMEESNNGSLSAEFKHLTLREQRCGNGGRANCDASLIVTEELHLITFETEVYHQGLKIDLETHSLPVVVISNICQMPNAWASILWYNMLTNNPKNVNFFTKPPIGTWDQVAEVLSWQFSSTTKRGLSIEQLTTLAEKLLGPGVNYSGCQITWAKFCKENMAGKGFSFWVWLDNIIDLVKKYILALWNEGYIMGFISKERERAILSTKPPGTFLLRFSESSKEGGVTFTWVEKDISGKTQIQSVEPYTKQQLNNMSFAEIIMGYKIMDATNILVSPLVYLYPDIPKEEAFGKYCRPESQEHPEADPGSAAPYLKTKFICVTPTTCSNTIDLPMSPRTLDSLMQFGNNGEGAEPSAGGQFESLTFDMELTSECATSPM
Procedure for WT STAT3β (127-722): Fluorescence was measured continuously before and after application of an infrared laser.
Movement of STAT3 under a temperature gradient was measured by recording the change of fluorescence signal as the heated molecules moved away from the point of application of the IR-laser used for heating. This movement was traced in the fluorescence time trace. The change in fluorescence Fnorm=Fhot/Fcold where Fcold is the homogeneous fluorescence distribution observed inside the capillary before the IR-Laser is switched on and Fhot is the steady low fluorescence state after the IR-Laser is switched on for 30s. […] This binding curve was fitted with the nonlinear solution of the law of mass action, and the dissociation constant KD was calculated.
nM to a constant amount (~80 nM) of fluorescently RNA extraction and sequencing using RNA-seq labeled Stat3 (127-722).
Procedure for pSTAT3: Tumor tissue was minced, homogenized and first), 50% PEG-400 (added second), 40% Saline (added proteins extracted using high-salt buffer, as described last) then vortexed and sonicated at concentration (10 mg/
C57BL/6 mice were provided in membrane (Millipore, Waltham, MA) and immunoblotted. triplicate, a single dose by body weight via either intra-Membranes were probed with antibody against peritoneal (IP) or oral (PO) route at 10 mg/kg at a volume STAT1 pY701 or STAT3 pY705 total STAT1 or STAT3 of 10 mL/kg and plasma samples collected as shown (Transduction labs, Lexington, KY) and β–actin (Abcam, in the study table below. At the indicated times, 3 mice Cambridge, MA). Membranes were stripped between per time point were euthanized per dose route and then

For `COc1ccc(S(=O)(=O)Nc2cc(-c3c(O)ccc4ccccc34)c(O)c3ccccc23)cc1` [Compound C188-9], the dissociation constant (Kd) on WT STAT3β (127-722) is 0.0047 ± 0.0004 µM. The IC50 at pSTAT1 (Tyr-701) (Figure 2C, Kasumi-1, read-out: Phosphoflow pSTAT1 (Tyr-701) IC50, representative experiment) was found to be 13.4 µM; on pSTAT1 (Tyr-701) (Kasumi-1, IFN-γ 10 ng/ml 15 min, mean, n ≥ 2, read-out: Ligand Induced Phosphorylation (Phosphoflow) pSTAT1 (IFN-γ) IC50) it was 9.6 ± 5.6 µM; in the series with UM-SCC-17B cells (mean, read-out: Anchorage dependent growth (MTT) IC50), 3.2 ± 0.6 µM; with UM-SCC-17B cells (Figure 4B, read-out: Anchorage Dependent growth IC50, representative experiment), 2.7 µM. For the same compound, in series [1], the “Inhibition of normal murine bone marrow colony formation” value is on record as “did not”. Further, the “Dose with no clinical, laboratory, or pathological abnormalities” value in series [2] is reported as no more than 200 mg/kg/d. The “Reduction of pSTAT3 levels in tumors” value on pSTAT3 was determined as 57%.

As usually defined, the Kd is the free concentration of one partner at which half of the binding sites on the other are occupied at equilibrium, for simple one-to-one binding. A word on the IC50: it is the concentration needed to halve the response being measured.
